Measured values as given in patent publication US20230330254A1 (Regeneron Pharmaceuticals, Inc., priority 2022, published 2023).
Like-named read-outs stand apart in the source and are kept apart here. *1 amine or outer side, *2 acyl side, *3 side chain or, on linkers, in order; H or OH if unused. Where a SMILES comes first, the peptide text is derived from it. Side-chain parts run from the residue outwards. [ ]: non-standard residue; d: D form. The star is where a group is joined. PEG24 = NCCOCCOCCOCCOCCOCCOCCOCCOCCOCCOCCOCCOCCOCCOCCOCCOCCOCCOCCOCCOCCOCCOCCOCCOCCC(=O)O; Bip(2'-Et-4'-O(CH2)4NH2) = CCc1cc(OCCCCN[*:3])ccc1-c1ccc(C[C@H](N[*:1])C(=O)[*:2])cc1; Bip(2'-Et,4'-O(CH2)4N3) = CCc1cc(OCCCCN=[N+]=[N-])ccc1-c1ccc(C[C@H](N)C(=O)O)cc1; Bip(2'-Et,4'-O(CH2)4NH2) = CCc1cc(OCCCCN)ccc1-c1ccc(C[C@H](N)C(=O)O)cc1; Malonyl(2,2-Me2,histaminyl) = CC(C)(C(=O)NCCc1cnc[nH]1)C(=O)*; PEG12 = NCCOCCOCCOCCOCCOCCOCCOCCOCCOCCOCCOCCOCCC(=O)O; Nva(5-(3,5-Me2Ph)) = Cc1cc(C)cc(CCC[C@H](N)C(=O)O)c1; Ala(1H-tetrazol-5-yl) = N[C@@H](Cc1nnn[nH]1)C(=O)O; αMePhe(2-F) = C[C@](N)(Cc1ccccc1F)C(=O)O; X9 = O=C([C@@H]1CCN(CCc2cnc[nH]2)C1)*; DBCO = C1#Cc2ccccc2N(*)Cc2ccccc21; Suc = O=C(CCC(=O)[*:2])[*:1]; X1 = O=C(CCCCCc1cnc[nH]1)*; X2 = CC(C)(C(N)=O)C(=O)*

Assays:
[1] = test system: HEK293/CRE-Luc cells; assay: Luciferase reporter assay, HEK293/CRE-Luc cells without GLP1R (Example 17); assay type: cell-based, human
From the text: (§1) To test the activity of GLP1R agonist payloads, GLP1R agonist linker-payloads (LPs), and anti-GLP1R antibody tethered drug conjugates (ATDCs) of the invention, a cell-based cAMP responsive luciferase reporter assay was developed. To generate the assay cell line, the firefly luciferase gene was placed under the control of a cAMP response element (CRE) located upstream of a minimal promoter and transfected into HEK293 cells and referred to herein as HEK293/CRE-Luc cells.
(§2) Three-fold serial dilutions of free payloads or LPs were prepared in 100% DMSO, transferred to fresh assay media, and added to the cells at a final constant DMSO concentration of 0.2%. The last well in the plate served as a blank control containing only the assay media and 0.2% DMSO (untreated well) and was plotted as a continuation of the 3-fold serial dilution. Four to six hours later, luciferase activity was determined after the addition of One-Glo™ reagent (Promega, Cat #E6130) to each well. Relative light units (RLUs) were measured on an Envision luminometer (PerkinElmer) and EC50 values were determined using a four-parameter logistic equation over a 12-point dose response curve (GraphPad Prism). The signal to noise (S/N) was determined by taking the ratio of the highest RLU on the dose response curve to the RLU in the untreated wells. Data was generated across several experiments (A-E) with M2361 serving as a reference standard in each experiment to calculate the payload relative potency ((M2361 EC50/payload EC50)*100)) and relative S/N ((payload SN/M2361 SN)*100)).

[2] = molecular target: human GLP1R (Homo sapiens, UniProt P43220); assay: Luciferase reporter assay, HEK293/CRE-Luc/hGLP1R (Example 17); assay type: cell-based; parameters: engineered to express full-length human GLP1R, cynomolgus GLP1R; expressed in transfected cells; host or cells: HEK293/CRE-Luc; details: for S/N: highest RLU / RLU of untreated wells; for Relative Potency (% M2361 EC50) / Relative Signal:Noise (% M2361): relative to M2361 of the same experiment
Chain of human GLP1R (P43220 24-463): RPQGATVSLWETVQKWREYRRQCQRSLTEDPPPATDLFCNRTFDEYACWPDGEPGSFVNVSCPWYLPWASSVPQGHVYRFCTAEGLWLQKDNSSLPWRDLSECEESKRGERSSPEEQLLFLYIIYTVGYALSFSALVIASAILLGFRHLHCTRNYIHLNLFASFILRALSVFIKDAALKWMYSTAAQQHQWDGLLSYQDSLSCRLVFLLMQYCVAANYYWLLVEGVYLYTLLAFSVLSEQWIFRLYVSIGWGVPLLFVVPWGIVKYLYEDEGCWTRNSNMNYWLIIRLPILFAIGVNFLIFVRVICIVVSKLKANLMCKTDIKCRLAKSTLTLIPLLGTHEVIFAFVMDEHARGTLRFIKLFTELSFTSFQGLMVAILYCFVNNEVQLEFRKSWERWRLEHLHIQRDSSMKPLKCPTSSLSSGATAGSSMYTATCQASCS
From the text: as §1, §2

[3] = HEK293/CRE-Luc cells without hGLP1R, payloads and linker-payloads
[4] = HEK293/CRE-Luc cells without hGLP1R, payloads and linker-payloads, read-out: EC50
[5] = HEK293/CRE-Luc/hGLP1R, payloads and linker-payloads, experiments A-E, M2361 repeated in each, read-out: EC50
[6] = Table 28, reporter cells without GLP1R, read-out: HEK293/CRE-Luc EC50
[7] = Table 29, reporter cells without GLP1R, read-out: HEK293/CRE-Luc EC50
[8] = text b1830, read-out: EC50 in HEK293/CRE-Luc/hGLP1R cells

S/N ([2]; HEK293/CRE-Luc/hGLP1R) | Relative Potency (% M2361 EC50) ([2]; HEK293/CRE-Luc/hGLP1R) [%] | Relative Signal:Noise (% M2361) ([2]; HEK293/CRE-Luc/hGLP1R) [%] | Compound | S/N [1, 3] | EC50 [1, 4] [nM] | EC50 [2, 5] [nM] | EC50 [1, 6] [nM] | EC50 [1, 7] [nM] | EC50 [2, 8] [nM]
– | – | – | GLP2 [reference compound] | – | – | – | > 200 | > 30 | –
– | – | – | GCG [reference compound] | – | – | – | > 200 | > 30 | –
293.2 | 28.0 | 124.3 | CCc1cc(OCCCCNC(=O)CCOCCOCCOCCOCCOCCOCCOCCOCCOCCOCCOCCOCCNC(=O)CCC(=O)N2Cc3ccccc3C#Cc3ccccc32)ccc1-c1ccc(C[C@H](NC(=O)[C@H](CC(=O)O)NC(=O)[C@H](CO)NC(=O)[C@@H](NC(=O)[C@](C)(Cc2ccccc2F)NC(=O)[C@@H](NC(=O)CNC(=O)[C@H](Cc2nn[nH]n2)NC(=O)C(C)(C)C(=O)NCCc2cnc[nH]2)[C@@H](C)O)[C@@H](C)O)C(=O)N[C@@H](CCCc2cc(C)cc(C)c2)C(N)=O)cc1 [LP3, DIBAC-suc-PEG12-P9] ({Malonyl(2,2-Me2,histaminyl)}-[Ala(1H-tetrazol-5-yl)]GT[αMePhe(2-F)]TSD[Bip(2'-Et-4'-O(CH2)4NH2)]([PEG12-Suc-DBCO])[Nva(5-(3,5-Me2Ph))]-NH2) | – | – | 0.0976 | – | – | –
– | – | – | CCc1cc(OCCCCNC(=O)CCOCCOCCOCCOCCOCCOCCOCCOCCOCCOCCOCCOCCOCCOCCOCCOCCOCCOCCOCCOCCOCCOCCOCCOCCNC(=O)CCC(=O)N2Cc3ccccc3C#Cc3ccccc32)ccc1-c1ccc(C[C@H](NC(=O)[C@H](CC(=O)O)NC(=O)[C@H](CO)NC(=O)[C@@H](NC(=O)[C@](C)(Cc2ccccc2F)NC(=O)[C@@H](NC(=O)CNC(=O)[C@H](Cc2nn[nH]n2)NC(=O)CCCCCc2cnc[nH]2)[C@@H](C)O)[C@@H](C)O)C(=O)N[C@@H](CCCc2cc(C)cc(C)c2)C(N)=O)cc1 [M2944] (X1-[Ala(1H-tetrazol-5-yl)]GT[αMePhe(2-F)]TSD[Bip(2'-Et-4'-O(CH2)4NH2)]([PEG24-Suc-DBCO])[Nva(5-(3,5-Me2Ph))]-NH2) | – | – | > 20 | – | – | > 20
267.8 | 38.6 | 81.7 | CCc1cc(OCCCCNC(=O)CCOCCOCCOCCOCCOCCOCCOCCOCCOCCOCCOCCOCCOCCOCCOCCOCCOCCOCCOCCOCCOCCOCCOCCOCCNC(=O)CCC(=O)N2Cc3ccccc3-c3nn[nH]c3-c3ccccc32)ccc1-c1ccc(C[C@H](NC(=O)[C@H](CC(=O)O)NC(=O)[C@H](CO)NC(=O)[C@@H](NC(=O)[C@](C)(Cc2ccccc2F)NC(=O)[C@@H](NC(=O)CNC(=O)[C@H](Cc2nn[nH]n2)NC(=O)C(C)(C)C(=O)NCCc2cnc[nH]2)[C@@H](C)O)[C@@H](C)O)C(=O)N[C@@H](CCCc2cc(C)cc(C)c2)C(C)=O)cc1 [M2547] | – | – | – | – | – | –
– | – | – | CCc1cc(OCCCCN)ccc1-c1ccc(C[C@H](NC(=O)[C@H](CC(=O)O)NC(=O)[C@H](CO)NC(=O)[C@@H](NC(=O)[C@](C)(Cc2ccccc2F)NC(=O)[C@@H](NC(=O)CNC(=O)[C@H](Cc2nn[nH]n2)NC(=O)[C@@H]2CCN(CCc3cnc[nH]3)C2)[C@@H](C)O)[C@@H](C)O)C(=O)N[C@@H](CCCc2cc(C)cc(C)c2)C(N)=O)cc1 [P17] (X9-[Ala(1H-tetrazol-5-yl)]GT[αMePhe(2-F)]TSD[Bip(2'-Et,4'-O(CH2)4NH2)][Nva(5-(3,5-Me2Ph))]-NH2) | 1.0 | > 200 | – | – | – | –
– | – | – | GIP [reference compound] | – | – | – | > 200 | > 30 | –
78.1 | 2.2 | 108.6 | CCc1cc(OCCCCNC(=O)[C@H](CO)NC(=O)CNC(=O)CNC(=O)CNC(=O)CNC(=O)CCC(=O)N2Cc3ccccc3C#Cc3ccccc32)ccc1-c1ccc(C[C@H](NC(=O)[C@H](CC(=O)O)NC(=O)[C@H](CO)NC(=O)[C@@H](NC(=O)[C@](C)(Cc2ccccc2F)NC(=O)[C@@H](NC(=O)CNC(=O)[C@H](Cc2nn[nH]n2)NC(=O)C(C)(C)C(N)=O)[C@@H](C)O)[C@@H](C)O)C(=O)N[C@@H](CCCc2cc(C)cc(C)c2)C(N)=O)cc1 [LP14, DIBAC- suc-G4S- P4] | 1.3 | > 20 | 0.366 | – | – | –
79.3 | 0.2 | 110.2 | CCc1cc(OCCCCNC(=O)CCOCCOCCOCCOCCOCCOCCOCCOCCOCCOCCOCCOCCOCCOCCOCCOCCOCCOCCOCCOCCOCCOCCOCCOCCNC(=O)CCC(=O)N2Cc3ccccc3C#Cc3ccccc32)ccc1-c1ccc(C[C@H](NC(=O)[C@H](CC(=O)O)NC(=O)[C@H](CO)NC(=O)[C@@H](NC(=O)[C@](C)(Cc2ccccc2F)NC(=O)[C@@H](NC(=O)CNC(=O)[C@H](Cc2nn[nH]n2)NC(=O)C(C)(C)C(N)=O)[C@@H](C)O)[C@@H](C)O)C(=O)N[C@@H](CCCc2cc(C)cc(C)c2)C(N)=O)cc1 [LP13, DIBAC-suc-PEG24-P4] (X2-[Ala(1H-tetrazol-5-yl)]GT[αMePhe(2-F)]TSD[Bip(2'-Et-4'-O(CH2)4NH2)]([PEG24-Suc-DBCO])[Nva(5-(3,5-Me2Ph))]-NH2) | 1.3 | > 20 | 4.83 | – | – | –
282.1 | 193.4 | 86.0 | CCc1cc(OCCCCNC(=O)[C@H](CO)NC(=O)CNC(=O)CNC(=O)CNC(=O)CN)ccc1-c1ccc(C[C@H](NC(=O)[C@H](CC(=O)O)NC(=O)[C@H](CO)NC(=O)[C@@H](NC(=O)[C@](C)(Cc2ccccc2F)NC(=O)[C@@H](NC(=O)CNC(=O)[C@H](Cc2nn[nH]n2)NC(=O)C(C)(C)C(=O)NCCc2cnc[nH]2)[C@@H](C)O)[C@@H](C)O)C(=O)N[C@@H](CCCc2cc(C)cc(C)c2)C(N)=O)cc1 [M2739, G4S-P9] | – | – | 0.01 | – | – | –

Compound | S/N ([2]; HEK293/CRE-Luc/hGLP1R) | Relative Potency (% M2361 EC50) ([2]; HEK293/CRE-Luc/hGLP1R) [%] | Relative Signal:Noise (% M2361) ([2]; HEK293/CRE-Luc/hGLP1R) [%] | S/N [1, 3] | EC50 [1, 4] [nM] | EC50 [2, 5] [nM] | EC50 [1, 6] [nM] | EC50 [1, 7] [nM] | EC50 [2, 8] [nM]
CCc1cc(OCCCCNC(=O)[C@H](CO)NC(=O)CNC(=O)CNC(=O)CNC(=O)CNC(=O)C(CO)NC(=O)CNC(=O)CNC(=O)CNC(=O)CN)ccc1-c1ccc(C[C@H](NC(=O)[C@H](CC(=O)O)NC(=O)[C@H](CO)NC(=O)[C@@H](NC(=O)[C@](C)(Cc2ccccc2F)NC(=O)[C@@H](NC(=O)CNC(=O)[C@H](Cc2nn[nH]n2)NC(=O)C(C)(C)C(=O)NCCc2cnc[nH]2)[C@@H](C)O)[C@@H](C)O)C(=O)N[C@@H](CCCc2cc(C)cc(C)c2)C(N)=O)cc1 (stereo partly shown) [M2945] | 71.8 | 31.4 | 99.9 | 1.4 | > 20 | 0.0255 | – | – | –
CCc1cc(OCCCCN=[N+]=[N-])ccc1-c1ccc(C[C@H](NC(=O)[C@H](CC(=O)O)NC(=O)[C@H](CO)NC(=O)[C@@H](NC(=O)[C@](C)(Cc2ccccc2F)NC(=O)[C@@H](NC(=O)CNC(=O)[C@@H](N)Cc2nn[nH]n2)[C@@H](C)O)[C@@H](C)O)C(=O)N[C@@H](CCCc2cc(C)cc(C)c2)C(N)=O)cc1 [M2383] (H-[Ala(1H-tetrazol-5-yl)]GT[αMePhe(2-F)]TSD[Bip(2'-Et,4'-O(CH2)4N3)][Nva(5-(3,5-Me2Ph))]-NH2) | 293.3 | 0.0 | 89.4 | 1.8 | > 200 | > 200 | – | – | > 20
CCc1cc(OCCCCNC(=O)[C@H](CO)NC(=O)CNC(=O)CNC(=O)CNC(=O)CNC(=O)[C@H](CO)NC(=O)CNC(=O)CNC(=O)CNC(=O)CNC(=O)CCC(=O)N2Cc3ccccc3C#Cc3ccccc32)ccc1-c1ccc(C[C@H](NC(=O)[C@H](CC(=O)O)NC(=O)[C@H](CO)NC(=O)[C@@H](NC(=O)[C@](C)(Cc2ccccc2F)NC(=O)[C@@H](NC(=O)CNC(=O)[C@H](Cc2nn[nH]n2)NC(=O)C(C)(C)C(=O)NCCc2cnc[nH]2)[C@@H](C)O)[C@@H](C)O)C(=O)N[C@@H](CCCc2cc(C)cc(C)c2)C(N)=O)cc1 [LP17, DIBAC- suc-G4S- G4S-P9] | 258.0 | 50.4 | 109.4 | – | – | 0.0542 | – | – | –
CCc1cc(OCCCCN)ccc1-c1ccc(C[C@H](NC(=O)[C@H](CC(=O)O)NC(=O)[C@H](CO)NC(=O)[C@@H](NC(=O)[C@](C)(Cc2ccccc2F)NC(=O)[C@@H](NC(=O)CNC(=O)[C@@H](N)CCC(N)=O)[C@@H](C)O)[C@@H](C)O)C(=O)N[C@@H](CCCc2cc(C)cc(C)c2)C(N)=O)cc1 [M2913] | 3.2 | 0.0 | 4.9 | 1.1 | > 200 | – | – | – | –
